Activity calls are given as the source filed them. No cut-off for these calls is given here.
Legend:
[1] = Photocytotoxicity against rat AY27 cells assessed as cell death at 0.25 uM incubated for 2 hrs followed by 10 mW/cm2 laser light irradiation for 30 mins and measured after 24 hrs in presence of Hexyl-5-aminolevulinic acid by MTT assay relative to control; format: functional, AY-27
[2] = Lipophilicity, log D of the compound at pH 7.4 by shake flask method; format: physicochemical; settings: buffer
AY-27 = test: Photocytotoxicity against rat AY27 cells assessed as cell death at 0.025 to 1.25 uM incubated for 2 hrs followed by 10 mW/cm2 laser light irradiation for 30 mins and measured after 24 hrs by MTT assay; format: functional, cell-based
[3] = Drug localization in mitochondria of rat AY27 cells at 0.5 uM after 30 mins by Mitotracker deep Red staining-based confocal fluorescence microscopy; format: ADME; settings: ay-27, 0.5 h
[4] = Drug uptake in rat AY27 cells at 1 uM by texas red probe-based fluorescence microscopy; format: ADME, cell-based; settings: ay-27, 1 µM, TDE = time-dependent effect
[5] = Dark toxicity in rat AY27 cells assessed as reduction in cell viability at 0.025 to 1.25 uM preincubated for 2 hrs followed by 30 mins incubation under dark condition measured after 24 hrs in presence of Hexyl-5-aminolevulinic acid by MTT assay; format: cell-based; settings: ay-27, 1.25 µM
[6] = Drug uptake in rat AY27 cells assessed per cell at 5 uM measured after 120 mins by fluorescence assay; format: ADME, cell-based; settings: ay-27, 2 h
[7] = Dark toxicity in rat AY27 cells assessed as reduction in cell viability at 0.025 to 1.25 uM preincubated for 2 hrs followed by 30 mins incubation under dark condition and measured after 24 hrs by MTT assay; format: cell-based; settings: ay-27, 1.25 µM
[8] = Lipophilicity, log D of the compound at pH 7.4; format: physicochemical; settings: buffer
[9] = Photodynamic anticancer activity against rat AY27 cells assessed as cell death at 0.5 uM incubated for 2 hrs followed by 10 mW/cm2 laser light irradiation for 30 mins and measured after 24 hrs by MTT assay relative to control; format: functional, AY-27
[10] = Drug localization in mitochondria of rat AY27 cells at 0.5 uM assessed as protoporphyrin IX level after 2 hrs by Mitotracker deep Red staining-based confocal fluorescence microscopic method; format: ADME; settings: ay-27, 2 h

Question: Which Activity [1] does the source give for `CCN(CC)c1ccc2c(-c3ccccc3C(=O)OCC3CCN(/C=C/C(=O)OC(C(=O)O[C@H]4C[C@@]5(O)[C@@H](OC(=O)c6ccccc6)[C@@H]6[C@]7(OC(C)=O)CO[C@@H]7C[C@H](O)[C@@]6(C)C(=O)[C@H](OC(C)=O)C(=C4C)C5(C)C)[C@@H](NC(=O)c4ccccc4)c4ccccc4)CC3)c3ccc(=[N+](CC)CC)cc-3oc2c1.[Cl-]` (stereo partly specified) here?
Answer: Its Activity is 84%.

Question: And the logD [2]?
Answer: Its logD is 1.9.

Question: And the Activity (AY-27)?
Answer: Its Activity is “inactive”.

Question: What about the Drug uptake [3] of the same molecule?
Answer: The Drug uptake was “Active”.

Question: And the Drug uptake [4]?
Answer: The Drug uptake was “Tde”.

Question: And the Activity [5]?
Answer: Its Activity is “Non-Toxic”.

Question: What about the Drug uptake [6] of the same molecule?
Answer: The Drug uptake was 0.68 fmol.

Question: What about the Activity [7] of the same molecule?
Answer: The Activity was “Non-Toxic”.

Question: For `CC(=O)O[C@H]1C(=O)[C@@]2(C)[C@H]([C@H](OC(=O)c3ccccc3)[C@]3(O)C[C@H](OC(=O)C(OC(=O)/C=C/N4CCC(COC(=O)c5cc[n+](C)cc5)CC4)[C@@H](NC(=O)c4ccccc4)c4ccccc4)C(C)=C1C3(C)C)[C@]1(OC(C)=O)CO[C@@H]1C[C@@H]2O.[Cl-]` (stereo partly specified), which Activity [1] is on record?
Answer: The Activity was 82%.

Question: What about the logD [2] of the same molecule?
Answer: The logD was 1.

Question: And the Activity (AY-27)?
Answer: Its Activity is “inactive”.

Question: What about the Activity [5] of the same molecule?
Answer: The Activity was “Non-Toxic”.

Question: And the Activity [7]?
Answer: The Activity was “Non-Toxic”.

Question: Which results are given for `CC(=O)O[C@H]1C(=O)[C@@]2(C)[C@H]([C@H](OC(=O)c3ccccc3)[C@]3(O)C[C@H](OC(=O)C(OC(=O)/C=C/N4CCC(COCCC[P+](c5ccccc5)(c5ccccc5)c5ccccc5)CC4)[C@@H](NC(=O)c4ccccc4)c4ccccc4)C(C)=C1C3(C)C)[C@]1(OC(C)=O)CO[C@@H]1C[C@@H]2O.[Br-]` (stereo partly specified)?
Answer: Activity [1]: 80%; logD [2]: 1.3; Activity (AY-27): inactive; Activity [5]: Non-Toxic; Activity [7]: Non-Toxic

Question: With `CC(=O)O[C@H]1C(=O)[C@@]2(C)[C@H]([C@H](OC(=O)c3ccccc3)[C@]3(O)C[C@H](OC(=O)[C@H](O)[C@@H](NC(=O)c4ccccc4)c4ccccc4)C(C)=C1C3(C)C)[C@]1(OC(C)=O)CO[C@@H]1C[C@@H]2O` [PACLITAXEL] as the molecule, how does the logD [8] read?
Answer: Its logD is 3.6.

Question: Which results are given for `CCCCCCOC(=O)CCC(=O)CN` [HEXAMINOLEVULINATE]?
Answer: Activity [9]: 40%; Drug uptake [10]: Active

Reference: ChEMBL document CHEMBL4387715, “Singlet oxygen-activatable Paclitaxel prodrugs via intermolecular activation for combined PDT and chemotherapy” (Bioorg Med Chem Lett, 2019)
